Species on record: Rattus norvegicus
Assay: DrugMatrix - Regimen: Daily Repeat
Type: toxicity, organism-based, Sprague-Dawley
Set-up: regimen Daily Repeat, gender Male, age 6-8 weeks
Conditions: in vivo, po, route oral GAVAGE, vehicle 100 % WATER; for BASOPHIL / EOSINOPHIL / ERYTHROCYTE COUNT / HEMATOCRIT / HEMOGLOBIN / LEUKOCYTE COUNT / LYMPHOCYTE / MEAN CORPUSCULAR HEMOGLOBIN / MEAN CORPUSCULAR HEMOGLOBIN CONCENTRATION / MEAN CORPUSCULAR VOLUME / MONOCYTE / NEUTROPHIL / PLATELET COUNT: tissue Blood; for ALANINE AMINOTRANSFERASE / ALBUMIN / ALKALINE PHOSPHATASE / ASPARTATE AMINOTRANSFERASE / BLOOD UREA NITROGEN / CARBON DIOXIDE / CHLORIDE / CHOLESTEROL / CREATINE PHOSPHOKINASE / CREATININE / GLUCOSE / LACTATE DEHYDROGENASE / LIPASE / PHOSPHORUS / POTASSIUM / SODIUM / TOTAL BILIRUBIN / TOTAL PROTEIN / URIC ACID: tissue Plasma
[1] = 0 mg/kg, 96 h, dose level Control, time 4 day
[2] = 0 mg/kg, […], dose level Control, time 6 day
[3] = 0 mg/kg, […], dose level Control, time 14 day
[4] = 4000 mg/kg, 96 h, dose level High, time 4 day
[5] = 4000 mg/kg, […], dose level High, time 6 day
[6] = 4000 mg/kg, […], dose level High, time 14 day

CC(C)=O [ACETONE]
BASOPHIL [1]: 0.47%
EOSINOPHIL [1]: 0.58%
ERYTHROCYTE COUNT [1]: 6.84 x10E6/uL
HEMATOCRIT [1]: 44.27%
HEMOGLOBIN [1]: 14.08 G/DL
LEUKOCYTE COUNT [1]: 13.39 x10E3/uL
LYMPHOCYTE [1]: 83.57%
MEAN CORPUSCULAR HEMOGLOBIN [1]: 20.57 pg
MEAN CORPUSCULAR HEMOGLOBIN CONCENTRATION [1]: 31.77 G/DL
MEAN CORPUSCULAR VOLUME [1]: 64.68 fL
MONOCYTE [1]: 1.92%
NEUTROPHIL [1]: 12.95%
PLATELET COUNT [1]: 1533.67 x10E3/uL
ALANINE AMINOTRANSFERASE [1]: 28.17 u/L
ALBUMIN [1]: 3.82 G/DL
ALKALINE PHOSPHATASE [1]: 354.33 u/L
ASPARTATE AMINOTRANSFERASE [1]: 73.83 u/L
BLOOD UREA NITROGEN [1]: 16 mg/dL
CARBON DIOXIDE [1]: 27.17 mmol/L
CHLORIDE [1]: 104.83 MEQ/L
CHOLESTEROL [1]: 83.33 mg/dL
CREATINE PHOSPHOKINASE [1]: 288 u/L
CREATININE [1]: 0.33 mg/dL
GLUCOSE [1]: 181.33 mg/dL
LACTATE DEHYDROGENASE [1]: 173.17 u/L
LIPASE [1]: 17.67 u/L
PHOSPHORUS [1]: 11.5 mg/dL
POTASSIUM [1]: 6.8 MEQ/L
SODIUM [1]: 147 MEQ/L
TOTAL BILIRUBIN [1]: 0.35 mg/dL
TOTAL PROTEIN [1]: 6.35 G/DL
URIC ACID [1]: 1.55 mg/dL
BASOPHIL [2]: 0.33%
EOSINOPHIL [2]: 0.85%
ERYTHROCYTE COUNT [2]: 6.98 x10E6/uL
HEMATOCRIT [2]: 38.58%
HEMOGLOBIN [2]: 14.25 G/DL
LEUKOCYTE COUNT [2]: 11.01 x10E3/uL
LYMPHOCYTE [2]: 85.07%
MEAN CORPUSCULAR HEMOGLOBIN [2]: 20.47 pg
MEAN CORPUSCULAR HEMOGLOBIN CONCENTRATION [2]: 31.45 G/DL
MEAN CORPUSCULAR VOLUME [2]: 64.9 fL
MONOCYTE [2]: 1.9%
NEUTROPHIL [2]: 11.42%
PLATELET COUNT [2]: 1289.67 x10E3/uL
BASOPHIL [3]: 0.52%
EOSINOPHIL [3]: 0.55%
ERYTHROCYTE COUNT [3]: 7.72 x10E6/uL
HEMATOCRIT [3]: 51.87%
HEMOGLOBIN [3]: 15.32 G/DL
LEUKOCYTE COUNT [3]: 16.2 x10E3/uL
LYMPHOCYTE [3]: 85.13%
MEAN CORPUSCULAR HEMOGLOBIN [3]: 19.85 pg
MEAN CORPUSCULAR HEMOGLOBIN CONCENTRATION [3]: 29.52 G/DL
MEAN CORPUSCULAR VOLUME [3]: 67.17 fL
MONOCYTE [3]: 1.7%
NEUTROPHIL [3]: 11.6%
PLATELET COUNT [3]: 1104.17 x10E3/uL
ALANINE AMINOTRANSFERASE [2]: 28.17 u/L
ALBUMIN [2]: 3.78 G/DL
ALKALINE PHOSPHATASE [2]: 385.33 u/L
ASPARTATE AMINOTRANSFERASE [2]: 78 u/L
BLOOD UREA NITROGEN [2]: 16.83 mg/dL
CARBON DIOXIDE [2]: 26.67 mmol/L
CHLORIDE [2]: 106.83 MEQ/L
CHOLESTEROL [2]: 82.67 mg/dL
CREATINE PHOSPHOKINASE [2]: 225.5 u/L
CREATININE [2]: 0.27 mg/dL
GLUCOSE [2]: 179.5 mg/dL
LACTATE DEHYDROGENASE [2]: 98.33 u/L
LIPASE [2]: 14.67 u/L
PHOSPHORUS [2]: 12.28 mg/dL
POTASSIUM [2]: 7.03 MEQ/L
SODIUM [2]: 150.33 MEQ/L
TOTAL BILIRUBIN [2]: 0.38 mg/dL
TOTAL PROTEIN [2]: 6.45 G/DL
URIC ACID [2]: 1.6 mg/dL
ALANINE AMINOTRANSFERASE [3]: 37 u/L
ALBUMIN [3]: 4.13 G/DL
ALKALINE PHOSPHATASE [3]: 342 u/L
ASPARTATE AMINOTRANSFERASE [3]: 71 u/L
BLOOD UREA NITROGEN [3]: 16.5 mg/dL
CARBON DIOXIDE [3]: 28.17 mmol/L
CHLORIDE [3]: 104 MEQ/L
CHOLESTEROL [3]: 70.67 mg/dL
CREATINE PHOSPHOKINASE [3]: 287.67 u/L
CREATININE [3]: 0.38 mg/dL
GLUCOSE [3]: 150.17 mg/dL
LACTATE DEHYDROGENASE [3]: 81.33 u/L
LIPASE [3]: 16 u/L
PHOSPHORUS [3]: 11.32 mg/dL
POTASSIUM [3]: 6.22 MEQ/L
SODIUM [3]: 147.33 MEQ/L
TOTAL BILIRUBIN [3]: 0.43 mg/dL
TOTAL PROTEIN [3]: 6.55 G/DL
URIC ACID [3]: 1.38 mg/dL
BASOPHIL [4]: 0.37%
EOSINOPHIL [4]: 0.2%
ERYTHROCYTE COUNT [4]: 7.37 x10E6/uL
HEMATOCRIT [4]: 47.5%
HEMOGLOBIN [4]: 15.37 G/DL
LEUKOCYTE COUNT [4]: 10.01 x10E3/uL
LYMPHOCYTE [4]: 77.97%
MEAN CORPUSCULAR HEMOGLOBIN [4]: 20.83 pg
MEAN CORPUSCULAR HEMOGLOBIN CONCENTRATION [4]: 32.37 G/DL
MEAN CORPUSCULAR VOLUME [4]: 64.47 fL
MONOCYTE [4]: 2.73%
NEUTROPHIL [4]: 18.23%
PLATELET COUNT [4]: 1486.67 x10E3/uL
ALANINE AMINOTRANSFERASE [4]: 47 u/L
ALBUMIN [4]: 3.73 G/DL
ALKALINE PHOSPHATASE [4]: 277.67 u/L
ASPARTATE AMINOTRANSFERASE [4]: 87.33 u/L
BLOOD UREA NITROGEN [4]: 12.67 mg/dL
CARBON DIOXIDE [4]: 30.67 mmol/L
CHLORIDE [4]: 103.33 MEQ/L
CHOLESTEROL [4]: 117.33 mg/dL
CREATINE PHOSPHOKINASE [4]: 390.33 u/L
CREATININE [4]: 0.53 mg/dL
GLUCOSE [4]: 176.33 mg/dL
LACTATE DEHYDROGENASE [4]: 159 u/L
LIPASE [4]: 27 u/L
PHOSPHORUS [4]: 11 mg/dL
POTASSIUM [4]: 5.6 MEQ/L
SODIUM [4]: 149 MEQ/L
TOTAL BILIRUBIN [4]: 0.27 mg/dL
TOTAL PROTEIN [4]: 6.37 G/DL
URIC ACID [4]: 1.23 mg/dL
BASOPHIL [5]: 0.23%
EOSINOPHIL [5]: 0.27%
ERYTHROCYTE COUNT [5]: 7.31 x10E6/uL
HEMATOCRIT [5]: 47.27%
HEMOGLOBIN [5]: 14.77 G/DL
LEUKOCYTE COUNT [5]: 10.16 x10E3/uL
LYMPHOCYTE [5]: 86.07%
MEAN CORPUSCULAR HEMOGLOBIN [5]: 20.17 pg
MEAN CORPUSCULAR HEMOGLOBIN CONCENTRATION [5]: 31.23 G/DL
MEAN CORPUSCULAR VOLUME [5]: 64.67 fL
MONOCYTE [5]: 2.77%
NEUTROPHIL [5]: 9.93%
PLATELET COUNT [5]: 1168.67 x10E3/uL
BASOPHIL [6]: 0.3%
EOSINOPHIL [6]: 0.38%
ERYTHROCYTE COUNT [6]: 8.11 x10E6/uL
HEMATOCRIT [6]: 55.22%
HEMOGLOBIN [6]: 16.28 G/DL
LEUKOCYTE COUNT [6]: 7.38 x10E3/uL
LYMPHOCYTE [6]: 78.4%
MEAN CORPUSCULAR HEMOGLOBIN [6]: 20.06 pg
MEAN CORPUSCULAR HEMOGLOBIN CONCENTRATION [6]: 29.48 G/DL
MEAN CORPUSCULAR VOLUME [6]: 68.1 fL
MONOCYTE [6]: 2.1%
NEUTROPHIL [6]: 18.48%
PLATELET COUNT [6]: 1123.2 x10E3/uL
ALANINE AMINOTRANSFERASE [5]: 59.33 u/L
ALBUMIN [5]: 3.83 G/DL
ALKALINE PHOSPHATASE [5]: 274 u/L
ASPARTATE AMINOTRANSFERASE [5]: 91.33 u/L
BLOOD UREA NITROGEN [5]: 17.33 mg/dL
CARBON DIOXIDE [5]: 27.67 mmol/L
CHLORIDE [5]: 107 MEQ/L
CHOLESTEROL [5]: 112 mg/dL
CREATINE PHOSPHOKINASE [5]: 187.67 u/L
CREATININE [5]: 0.37 mg/dL
GLUCOSE [5]: 172.33 mg/dL
LACTATE DEHYDROGENASE [5]: 78 u/L
LIPASE [5]: 11.33 u/L
PHOSPHORUS [5]: 12.07 mg/dL
POTASSIUM [5]: 6.83 MEQ/L
SODIUM [5]: 152 MEQ/L
TOTAL BILIRUBIN [5]: 0.33 mg/dL
TOTAL PROTEIN [5]: 6.57 G/DL
URIC ACID [5]: 1.5 mg/dL
ALANINE AMINOTRANSFERASE [6]: 84.2 u/L
ALBUMIN [6]: 4.12 G/DL
ALKALINE PHOSPHATASE [6]: 230.4 u/L
ASPARTATE AMINOTRANSFERASE [6]: 95.6 u/L
BLOOD UREA NITROGEN [6]: 15.2 mg/dL
CARBON DIOXIDE [6]: 30.6 mmol/L
CHLORIDE [6]: 104 MEQ/L
CHOLESTEROL [6]: 129.2 mg/dL
CREATINE PHOSPHOKINASE [6]: 256 u/L
CREATININE [6]: 0.54 mg/dL
GLUCOSE [6]: 144.8 mg/dL
LACTATE DEHYDROGENASE [6]: 59 u/L
LIPASE [6]: 22.2 u/L
PHOSPHORUS [6]: 11.14 mg/dL
POTASSIUM [6]: 6.2 MEQ/L
SODIUM [6]: 149.8 MEQ/L
TOTAL BILIRUBIN [6]: 0.42 mg/dL
TOTAL PROTEIN [6]: 6.66 G/DL
URIC ACID [6]: 1.5 mg/dL

Source: ChEMBL document CHEMBL3885881, “DrugMatrix”
